Common to all, as to experiment: inhibition of tumour cell growth, NCI panel, 48 h
The subject of test [1] is A549 NSCLC.
Test [2] concerns KM12 colon.
The subject of test [3] is MALME-3M melanoma.
The test system of test [4] is MOLT-4 leukemia.
The subject of test [5] is OVCAR-5 ovarian.
Test [6] has as its system RPMI-8226 leukemia.
For test [7], the system named is SF-539 CNS.
For test [8], the system named is SK-MEL-2 melanoma.
In test [9] the test system is SR leukemia.
The subject of test [10] is UO-31 renal.

Several values for one entry are separate records, joined by “and”; a condition that tells them apart may be missing. Equal values may be shown once.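 Interpolation was linear, between the two tested concentrations surrounding the appropriate level; five concentrations were tested over 48 hours in 96-well plates. GI50 marks 50% less growth. TGI marks complete inhibition of growth.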

With `COc1c(OC(C)C)cc2cc(O)c(C(=O)NC3Cc4ccc(c(Cl)n4)O[C@@H]4C=C5C#C/C(=C\C#CC6OC56C4OC4CC(C)(O)C(O)C(C)O4)C(OC4CC(O)C(N(C)C)C(C)O4)COC3=O)cc2c1OC` (stereo partly specified), the GI50 in [1] is > 36.3 µM and 0.798 µg/mL; in [2], > 36.3 µM and 10.1 µg/mL; in test [3], 0.533 µg/mL; in [4], 0.00979 µg/mL; in test [5] it was > 36.3 µM and 4.02 µg/mL; in test [6], 0.348 µg/mL. For the same compound, the GI50 is 14.4 µM and 0.372 µg/mL in [7]; 10 µg/mL in test [8]; 8.27 µM and 0.0174 µg/mL in test [9]; > 36.3 µM and 6.42 µg/mL in test [10]. The TGI in [1] is > 36.3 µM and 37.5 µg/mL; in test [2] it was > 36.3 µM and 37.5 µg/mL; in [3], > 36.3 µM and 37.5 µg/mL; in [4], 14.2 µg/mL; in [5], > 36.3 µM and 27.5 µg/mL; in test [6], 3.67 µg/mL. For the same compound, the TGI in [7] is > 36.3 µM and 5.29 µg/mL; in test [8] it was > 36.3 µM and 31.8 µg/mL; in test [9] it was > 36.3 µM and 0.746 µg/mL; in test [10], > 36.3 µM and 37.5 µg/mL.

In the case of `COc1c(CC=C(C)C)c(O)c(C(CC(C)C)c2c(O)c(CC=C(C)C)c(O)c(C(C)=O)c2O)c(O)c1C(C)=O` (stereo unspecified), the TGI was 12.1 µM in test [1]; 5.05 µM in test [2]; 6.45 µM in test [3]; 2.48 µM in [4]; 19.7 µM in [5]; 4.17 µM in test [6]. Further, the TGI in test [7] was determined as 7.76 µM; in test [8], 1.94 µM; in test [9], 3.8 µM; in test [10], 11.1 µM.

With `COc1ccc2nc3cc(Cl)ccc3c(N3CCN(c4ccnc(N5CCN(C)CC5)n4)CC3)c2c1`, the GI50 is 14.8 µM in test [1]; 2.09 µM in [2]; 2.2 µM in test [3]; 2.38 µM in test [4]; 1.81 µM in test [5]; 2.04 µM in [6]. Also, the GI50 is 1.77 µM in test [7], 3.72 µM in [8], 2.19 µM in test [9] and 1.77 µM in test [10]. The TGI stood at 36 µM in [1]; 4.38 µM in [2]; 4 µM in test [3]; 5.81 µM in test [4]; 3.9 µM in [5]; 4.84 µM in test [6]. In addition, the TGI is 3.3 µM in test [7], 12.2 µM in test [8], 5.94 µM in test [9] and 3.41 µM in test [10].

For the compound `CC(=O)[CH-]C(C)=O.CC(=O)[CH-]C(C)=O.CC(=O)[CH-]C(C)=O.[Ga+3]`, the GI50 in test [1], in test [2], in test [3], in test [5], in test [6] and in test [7] was greater than 100 µM each time. Further, the GI50 in test [8], in [9] and in test [10] was greater than 100 µM in each case. Besides, the TGI in [1], in [2], in [3], in test [5], in [6] and in test [7] was greater than 100 µM in each case. The TGI in test [8], in test [9] and in [10] was greater than 100 µM in each case.

Turning to `O=S(=O)(NCCCNc1cc(-c2cn(-c3ccccc3)nc2-c2cccc(O)c2)ccn1)c1ccc(F)cc1`, the GI50 in [1] was 5.11 µM; in test [2], 3.24 µM; in [3] it was 2.56 µM; in test [4] it was 2.15 µM; in test [5] it was 3.33 µM; in [6], 2.23 µM. Also, the GI50 in test [7] was 2.99 µM; in [8], 2.79 µM; in [9] it was 2.08 µM; in test [10], 2.62 µM. The TGI in [1] stood at 21 µM; in [2], 11.7 µM; in [3], 8.91 µM; in test [4], 6.55 µM; in test [5], 33.5 µM; in test [6], 7.63 µM. For the same compound, the TGI stood at 15.8 µM in test [7], 9.14 µM in [8], 6.09 µM in test [9] and 11.9 µM in test [10].

Take `CC(=O)OCC(CC[CH2][Sn]([Cl])([Cl])[c]1ccccc1)OC(C)=O` (stereo unspecified): the GI50 in test [1] was 21.9 µM; in [2], 17.8 µM; in test [4], 22 µM; in test [5] it was 15.7 µM; in [6], 22.9 µM; in [7], 22 µM. The GI50 in test [8] was 18.8 µM; in test [9], 10.7 µM; in test [10], 17.2 µM. In addition, the TGI in [1] was 53 µM; in [2] it was 33.2 µM; in [4], 63.7 µM; in [5] it was 42 µM; in test [6], 58.9 µM; in test [7], 42.5 µM. In addition, the TGI amounted to 36.4 µM in test [8], 50.4 µM in test [9] and 33 µM in test [10].

As for `COC1=C(OC)[C@]2(OC)c3c(O)c(OC)c4c(c3O[C@@]23O[C@@H](c2ccccc2)CC=C3C1=O)[C@@H](OC)C[C@H](c1ccccc1)O4`, the GI50 in test [1] is 2.21 µM; in [2] it was 1.57 µM; in [3] it was 0.377 µM; in test [4], 0.0401 µM; in [5] it was 1.5 µM; in test [6], 0.083 µM. For the same compound, the GI50 in [7] was 0.421 µM; in [9], 0.0317 µM; in test [10], 0.957 µM. The TGI in test [1] was 5.02 µM; in test [2], 3.12 µM; in test [3] it was 1.38 µM; in test [4], 0.194 µM; in test [5], 2.93 µM; in test [6], 0.335 µM. In addition, the TGI in test [7] amounted to 1.54 µM; in test [9], 0.133 µM; in test [10], 2.13 µM.

For `CC1CCN(CCOc2ccc(CNc3ccc4nc(CCC5CCCCC5)[nH]c4c3)cc2)CC1`, the GI50 in test [2] was 1.77 µM; in test [3] it was 1.71 µM; in test [4] it was 1.6 µM; in test [5], 1.76 µM; in test [6], 1.38 µM; in test [7], 1.56 µM. In addition, the GI50 in test [8] is 1.83 µM; in test [9] it was 0.485 µM; in test [10] it was 1.38 µM. The TGI in test [2] is 3.51 µM; in test [3], 3.17 µM; in test [4], 4.5 µM; in test [5] it was 3.44 µM; in test [6], 3.35 µM; in test [7] it was 3.01 µM. Besides, the TGI in [8] stood at 3.41 µM; in test [9] it was 2.66 µM; in test [10], 2.67 µM.

As for `Cc1ccc(S(=O)(=O)NC(=O)OC23COCN2COC3)cc1`, the TGI in test [1] was greater than 100 µM; in test [2] it was greater than 100 µM; in [3], greater than 100 µM; in test [5], greater than 100 µM; in test [6] it was 73 µM; in test [7], greater than 100 µM. Besides, the TGI in test [8], in test [9] and in test [10] was greater than 100 µM throughout.

In the case of `COc1ccc(-c2c3c(N)c4c(nc3nc3c2c(C)nn3-c2ccccc2)CCCC4)cc1`, the GI50 in [1] is 3.01 µM; in test [2], 3.16 µM; in test [4] it was 2.3 µM; in [5], 10.1 µM; in test [6] it was 1.92 µM; in [7], 14.5 µM. Also, the GI50 is 2.63 µM in test [8], 1.84 µM in test [9] and 2.46 µM in test [10]. The TGI in [1] worked out at 11 µM; in test [2], 10.8 µM; in [4] it was 5.77 µM; in test [5], 23.2 µM; in test [6], 4.32 µM; in [7], 29.2 µM. Also, the results for the TGI in [8], in test [9] and in test [10] were 5.95 µM, 5.01 µM and 11.5 µM, respectively.

As to `O=C1C(Nc2cccc(O)c2)=C(Sc2ccccc2)C(=O)N1Cc1ccccc1`, the GI50 is 3.81 µM in test [1]; 14 µM in [2]; 1.74 µM in [3]; 2.78 µM in test [4]; 18.2 µM in test [5]; 1.36 µM in [6]. The GI50 in test [8] is 11.4 µM; in test [9] it was 4.74 µM; in test [10], 4.98 µM. The TGI amounted to 15.9 µM in [1]; 28.8 µM in test [2]; 9.97 µM in test [3]; 12.3 µM in [4]; 34.1 µM in [5]; 4.07 µM in test [6]. Also, the TGI turned out to be 26.7 µM in test [8], 21.2 µM in [9] and 18 µM in test [10].

As for `COc1ccc2c(c1)C(=O)c1c-2c(=O)n(CCCN(C)C)c2cc(OC)c(OC)cc12`, the GI50 was 7.03 µM in [1]; 5.73 µM in [2]; 0.149 µM in [4]; 20.3 µM in test [5]; 8.14 µM in [6]; 3.61 µM in test [7]. For the same compound, the GI50 in test [8] was greater than 100 µM; in test [9], 0.128 µM; in test [10] it was 3.4 µM. Further, the TGI in [1] was 22 µM; in test [2] it was 19.8 µM; in test [4], 12 µM; in test [5], 35.7 µM; in [6], 42.3 µM; in test [7], 14.9 µM. Further, the TGI is greater than 100 µM in [8], 7.63 µM in test [9] and 16.1 µM in [10].

Regarding `COc1cc(/C=C/C(=O)O[C@H]2[C@H](O[C@@H]3O[C@@H](C)[C@H](O)[C@@H](O)[C@H]3O)[C@@H](O)[C@H](OCCc3ccc(O)c(O)c3)O[C@@H]2COC2OCC(O)(CO)C2O)ccc1O` (stereo partly specified), the GI50 in test [1], in [2], in test [4], in test [5], in test [6] and in [8] was greater than 100 µM in each case. The GI50 in test [9] and in [10] was greater than 100 µM each time. For the same compound, the TGI in test [1], in test [2], in [4], in [5], in [6] and in test [8] was greater than 100 µM throughout. In addition, the TGI in test [9] and in [10] was greater than 100 µM each time.

Regarding `c1ccc(C2CCCCC2)c(OCCCCCN2CCNCC2)c1`, the GI50 was 4.81 µM in test [1]; 1.85 µM in test [2]; 1.85 µM in test [3]; 1.63 µM in [4]; 3.46 µM in test [5]; 1.69 µM in test [6]. The GI50 was 3.65 µM in test [7], 0.995 µM in test [9] and 5.46 µM in test [10]. The TGI in test [1] is 20.2 µM; in test [2], 4 µM; in test [3], 3.57 µM; in test [4], 5.07 µM; in test [5], 13 µM; in test [6], 4.75 µM. For the same compound, the TGI in test [7] worked out at 18.1 µM; in test [9], 4.56 µM; in test [10], 21.1 µM.

As for `CN(C)CCCn1c2c(c3cc4c(cc3c1=O)OCO4)C(=O)c1ccccc1-2`, the GI50 in test [1] is 0.105 µM; in test [2], 2.89 µM; in [4], less than 0.0218 µM; in [5] it was 11.1 µM; in [6], 0.208 µM; in [7] it was 3.57 µM. For the same compound, the GI50 is 18.4 µM in [8] and 4.19 µM in test [10]. In addition, the TGI in test [1] turned out to be 2.43 µM; in test [2], 14.5 µM; in [4], 0.792 µM; in test [5], 45.7 µM; in test [6], 2.82 µM; in [7] it was 13.4 µM. The TGI in [8] is greater than 59.5 µM; in test [9] it was 0.0486 µM; in test [10], 39.9 µM.

The record behind these values is PubChem BioAssay (NCI).
